Measurements from US20200316053A1, “APPLICATION OF NOVEL TYROSINE KINASE INHIBITOR, ANLOTINIB, IN OSTEOSARCOMA AND CHONDROSARCOMA” (CHIA TAI TIANQING PHARMACEUTICAL GROUP CO., LTD., priority 2018, published 2020).
Where two headings read alike, the source gives them in different places.

Experiments:
[1] = tested on: osteosarcoma cell lines 143B, U2OS, MG63 and SJSA; assay: Transwell cell migration and invasion; type: cell-based, Human; conditions: 1 μM, 24 hours
Method: 1.2.6 Experimental analysis of Transwell cell migration and invasion: Cells were seeded at the upper end of the Transwell chamber (5×10^4 cells/well). 143B cells, U2OS cells, MG63 cells and SJSA cells were treated with 1 μM Anlotinib. A culture medium containing 2% serum was added to the upper end of the Transwell chamber (4 hours of pretreatment with 10% matrigel was required in the invasion experiment), and a culture medium containing 10% serum was added to the lower end. After 24 hours, the cells were fixed with 4% paraformaldehyde, stained with crystal violet, and photographed under microscope.

[2] = tested on: osteosarcoma cell lines 143B, U2OS, MG63 and SJSA; assay: Anti-proliferation effect on osteosarcoma cell lines (statement for all four lines); type: cell-based, Human; conditions: 0, 1, 2 or 4 μM for 24 or 48 hours; time- and concentration-dependent
Method: (§1) 1.2.2 Detection of cell proliferation by cck-8: 143B cells, U2OS cells, MG63 cells and SJSA cells in logarithmic growth phase were collected, rinsed with PBS, counted, and dispensed into separate tubes. The cells were seeded into a 96-well plate (3000 cells/well) and cultured for 24 h to allow for cell attachment. Anlotinib with different amount-of-substance concentrations (0 μM, 1 μM, 2 μM, 4 μM, 8 μM, 16 μM, 32 μM, and 64 μM) were then added, the mixture was incubated for 24 h, and then the detection was carried out. 100 μL of cck-8 reagent diluted 10-fold with DMEM culture medium was added into each well and the resulting mixture was incubated at 37° C. for 45 minutes. The absorbance value of the resultant in each well at 450 nm was detected by using a microplate reader.
In order to evaluate the anti-proliferation effects of Anlotinib on osteosarcoma cell lines 143B, U2OS, MG63 and SJSA, the osteosarcoma cell lines were treated with Anlotinib with a concentration of 0 μM, 1 μM, 2 μM or 4 μM for 24 hours or 48 hours.

[3] = tested on: osteosarcoma cell lines 143B, U2OS, MG63 and SJSA; assay: Detection of cell cycle by flow cytometer; type: cell-based, Human; conditions: 0-4 μM, 24 h, PI staining
Method: 1.2.4 Detection of cell cycle by flow cytometer: 143B cells, U2OS cells, MG63 cells and SJSA cells were added to the liquid culture media containing different amount-of-substance concentrations of Anlotinib (0 μM, 1 μM, 2 μM, and 4 μM) for cultivation. The cells were collected after 24 h, centrifuged at 1000 r/min for 1 min, rinsed with PBS, and fixed with 70% ethanol. The PI staining solution of cell cycle analysis kit was added, the mixture was incubated in the dark at room temperature for 15 min, and the detection was carried out by using a flow cytometer. Images were analyzed by using ModFit software. The experiment was repeated 3 times.

U2OS cells = assay: Detection of cell proliferation by cck-8; type: cell-based; conditions: Homo sapiens
Method: (§2) 1.2.1 Cell culture: Osteosarcoma cell lines 143B, […], MG63 and SJSA were cultured in DMEM complete culture medium (containing fetal bovine serum with a volume fraction of 10%, 0.1 g/L streptomycin, and 100 U/mL penicillin), and was incubated in a thermostatic incubator containing 5% CO2 (volume fraction) at 37° C. When about 85% cell confluence was reached, the cells were detached by using a mixed cell detachment solution containing 0.02% EDTA and 0.25% trypsin, and then the cells were collected, centrifuged at 1000 r/min for 3 min, and subcultured.
as §1, with “Anlotinib with different amount-of-substance concentrations (0 μM, 1 μM, 2 μM, 4 μM, 8 μM, 16 μM, 32 μM, and 64 μM) were then added, the mixture was incubated for 24 h, and then the detection was carried out.” left out

SJSA cells = assay: Detection of cell proliferation by cck-8; type: cell-based; conditions: Homo sapiens
Method: as §2
as §1, with “Anlotinib with different amount-of-substance concentrations (0 μM, 1 μM, 2 μM, 4 μM, 8 μM, 16 μM, 32 μM, and 64 μM) were then added, the mixture was incubated for 24 h, and then the detection was carried out.” left out

MG63 cells = assay: Detection of cell proliferation by cck-8; type: cell-based; conditions: Homo sapiens, MG-63
Method: as §2
as §1, with “Anlotinib with different amount-of-substance concentrations (0 μM, 1 μM, 2 μM, 4 μM, 8 μM, 16 μM, 32 μM, and 64 μM) were then added, the mixture was incubated for 24 h, and then the detection was carried out.” left out

143B cells = assay: Detection of cell proliferation by cck-8; type: cell-based; conditions: Homo sapiens
Method: as §2
as §1, with “Anlotinib with different amount-of-substance concentrations (0 μM, 1 μM, 2 μM, 4 μM, 8 μM, 16 μM, 32 μM, and 64 μM) were then added, the mixture was incubated for 24 h, and then the detection was carried out.” left out

[4] = tested on: osteosarcoma cell lines 143B, U2OS, MG63 and SJSA; assay: Detection of cell apoptosis by flow cytometer (Annexin-V-FITC/PI), with or without cisplatin; type: cell-based, Human; conditions: 2 μM Anlotinib with 10 μM cisplatin (DDP), 24 h
Method: 1.2.5 Detection of cell apoptosis by flow cytometer: 143B cells, U2OS cells, MG63 cells and SJSA cells were added to the liquid culture media containing 2 μM Anlotinib (with or without 10 μM cisplatin (DDP)) for cultivation. The cells were collected after 24 h, centrifuged at 1000 r/min for 1 min, and rinsed with PBS. Afterwards, an Annexin-V-FITC/PI Cell Apoptosis Detection Kit was used to detect the apoptosis of cells. The cells were added to 100 μL of 1×Binding buffer and resuspended, 5 μL of AnnexinV-FITC and 2.5 μL of PI staining reagent were added, and the mixture was shaken and mixed evenly in the dark. The resultant was reacted at room temperature for 15 min, 300 μL of 1×Binding buffer was then added, and the resulting mixture was mixed evenly and detected by a flow cytometer. The experiment was repeated 3 times.

[5] = tested on: osteosarcoma of the right proximal fibula; assay: Clinical case Example 8: patient; type: in vivo; conditions: prior chemotherapy, 1 cycle
Method: A patient experienced a pain on the outer side of the right lower leg with no obvious predisposing cause for 6 months. The pain was persistent and unrelated to movements such as walking, and could not be alleviated after rest. The patient was neither diagnosed nor treated, and the pain was gradually aggravated and occurred at night. […] The patient went for consultation on Dec. 1, 2017, and an incision biopsy of the tumor of the limb was performed on December 5. […] On Apr.
Methotrexate chemotherapy was given for 1 day on Dec. 12, 2017, Feb. 7, 2018, May 4, 2018 and Jul. 6, 2018, respectively. IFO chemotherapy (1 cycle) was given during the following time periods: from Dec. 16, 2017 to […], from Mar. 2, 2018 to Mar. 7, 2018 (the therapeutic effect was evaluated as SD), from Apr. 18, 2018 to Apr. 22, 2018 (platelet reduction (Grade IV)), from Jun. 14, 2018 to Jun. 18, 2018 (the therapeutic effect was evaluated as SD), from Aug. 30, 2018 to Sep. 3, 2018 (the therapeutic effect was evaluated as PD). Cisplatin and amrubicin chemotherapy (1 cycle) was respectively given during the following time periods: from Jan. 17, 2018 to Jan. 20, 2018, from May 24, 2018 to May 27, 2018, and from Jul. 20, 2018 to Jul. 23, 2018 (the therapeutic effect was evaluated as SD). […]

[6] = tested on: osteosarcoma of the right tibia, lung and pelvic metastasis; assay: Clinical case Example 7: patient
Method: A patient underwent the resection of the lesion on Nov. 7, 2016. On Nov. […] PORT implantation was performed under general anesthesia on Nov. 29, 2016, and the postoperative systemic intravenous adjuvant chemotherapy was performed. […] 1, 2016, and methotrexate (2 cycles of chemotherapy) was administered from Dec. 16, 2016 to Jan. 5, 2017. The CT re-examination performed on Jan. […] Ifosfamide (1 cycle of chemotherapy) was administered on Jan. […] The segmental resection of the tumor of the right proximal tibia, the joint replacement and the transposition of gastrocnemius muscle flap were performed under general anesthesia on Feb. 7, 2017. […] Ifosfamide (1 course of chemotherapy) was administered on Mar. […] Methotrexate was administered on Mar. […] 15, 2017. […] 4, 2017, ifosfamide chemotherapy was given on Jun. […] Methotrexate chemotherapy was given on Jul. […] Ifosfamide chemotherapy was given on Aug. […] The CT re-examination performed on Jan. […] A puncture biopsy of the mass of right femur was performed on Oct.
The patient was treated with anlotinib dihydrochloride capsule (12 mg) once a day via oral administration (2 weeks of continuous administration and 1 week of withdrawal being considered as one treatment cycle) from Nov. 16, 2018. […] 26, 2018.

[7] = tested on: osteosarcoma (chondroblastic type) of the right proximal humerus, bilateral lung metastasis; assay: Clinical case Example 6: patient; type: in vivo, human; conditions: prior high-dose chemotherapy, 6 courses, Aug-Dec 2016
Method: A patient underwent the surgical removal of the osteosarcoma lesion in the right proximal humerus and the humeral head prosthesis replacement on Apr. 27, 2013. […] Doxorubicin and ifosfamide were administered after the surgery. […] Bone marrow support therapy was given during the intermission of chemotherapy until the end of chemotherapy in August 2013. […] 1. […] 2. There were enlarged lymph nodes in the right axilla with slight increase in metabolism. The patient was treated by being administered with CIK cells via infusion after the completion of the chemotherapy. At the end of 2015, the patient experienced pain in the upper part of the left humerus, no obvious mass was seen, and the patient suffered from the recurrent pain. […] 1. There was no sign of tumor recurrence in the right humerus after the surgery of the osteosarcoma of the right humerus and the comprehensive treatment, and there was a stripe-shaped hypermetabolic lesion in the upper part of the left humerus. 2. There was no sign of lymph node metastasis in the bilateral armpits. 3. […] On Jun. 7, 2016 and Jul. 1, 2016, the patient underwent 2 courses of doxorubicin and ifosfamide chemotherapy and the process went well. […] Microwave inactivation of the tumor of the left proximal humerus and the bone graft internal fixation was performed on Jul. 22, 2016. […]

Question: Which results are given for `COc1cc2c(Oc3ccc4[nH]c(C)cc4c3F)ccnc2cc1OCC1(N)CC1` [Anlotinib, 1-[[[4-(4-fluoro-2-methyl-1H-indol-5-yl)oxy-6-methoxyquinolin-7-yl]oxy]methyl]cyclopropylamine]?
Answer: migration of osteosarcoma cell lines [1]: greatly inhibited; invasion of osteosarcoma cell lines ([1]; matrigel): greatly inhibited; effect on the proliferation of the osteosarcoma cell lines [2]: significant inhibitory effect; cell cycle arrest [3]: G2/M cycle arrest occurred in cells; cells in G1 phase [3]: decrease of cells in G1 phase; IC50 (U2OS cells; 24 h, read-out: IC50 (24 h)): 41.3 µM; IC50 (U2OS cells; 48 h, read-out: IC50 (48 h)): 25.9 µM; IC50 (SJSA cells; 24 h, read-out: IC50 (24 h)): 25.7 µM; IC50 (SJSA cells; 48 h, read-out: IC50 (48 h)): 10.2 µM; IC50 (MG63 cells; MG63, 24 h, read-out: IC50 (24 h)): 30.1 µM; IC50 (MG63 cells; MG63, 48 h, read-out: IC50 (48 h)): 14.8 µM; IC50 (143B cells; 24 h, read-out: IC50 (24 h)): 20.8 µM; IC50 (143B cells; 48 h, read-out: IC50 (48 h)): 7.95 µM; apoptosis of osteosarcoma cell lines caused by cisplatin [4]: significantly enhancing

Question: For `O=P1(NCCCl)OCCCN1CCCl` (centres unmarked) [Ifosfamide, ifosfamide], which platelet reduction grade ([5]; Apr. 18, 2018 to Apr. 22, 2018) is on record?
Answer: Grade IV

Question: And the therapeutic effect ([5]; Aug. 30, 2018 to Sep. 3, 2018)?
Answer: PD (progressive disease, specifically means that the sum of the diameters of the tumor target lesions increases by 20% or more from the baseline level)

Question: And the tolerability of chemotherapy ([6]; prior chemotherapy, 1 cycle, Jan. 19, 2017)?
Answer: no obvious gastrointestinal reaction and bone marrow suppression

Question: What about the leucocytopenia grade ([6]; prior chemotherapy, Aug. 16, 2017) of the same compound?
Answer: Grade IV

Question: And the leucocytopenia grade ([6]; prior chemotherapy, Jun. 19, 2017 (after doxorubicin and cisplatin Jun. 4, 2017))?
Answer: Grade IV

Question: And the leucocytopenia grade ([6]; prior chemotherapy, Mar. 10, 2017)?
Answer: Grade II

Question: And the leucocytopenia grade ([6]; prior chemotherapy, May 3, 2017)?
Answer: Grade IV

Question: `CN(Cc1cnc2nc(N)nc(N)c2n1)c1ccc(C(=O)N[C@@H](CCC(=O)O)C(=O)O)cc1` [Methotrexate, methotrexate] was tested. Which “bone marrow suppression grade” value [7] did it give?
Answer: Grade I to II

Question: What about the “bone marrow suppression grade” value ([6]; human, in vivo) of the same compound?
Answer: Grade II
